# pEC50: −log10 of the molar value. Where “and” joins values, the source holds several entries; their conditions need not be identical. Equal entries are not always repeated. Entries after “also recorded” stand apart in the source; their conditions may differ. Residues, ends and D or L forms follow the SMILES beside them. No end group written: not given here.
# Biological target: T1, HLA-A2 (Homo sapiens, UniProt P04439, D140Y/D185E/D98H/E176V/E277Q/G131W/G231S/I119V/I121R/I166T/I218V/L300P/L318F/N151K/N90K/P208A/P217A/Q86G/Q94H/R138H/R169H/T345S)
# T1 construct: stabilization of the class I molecules after loading of peptide to the peptide transporter deficient cell line T2; endogenous in cells; host or cells: T2 (TAP-deficient human hybrid cell line), metabolically labelled lysate
# Assay: Assembly assay for peptide binding to class I MHC, HLA-A2
# Conditions: Example 1, Table 1
# Experimental: This assembly assay is carried out as described previously (12,13), and it is based on stabilisation of the HLA molecule after loading of peptide to the peptide transporter deficient cell line T2. Subsequently, correctly folded stable HLA heavy chains are immunoprecipitated using conformation dependent antibodies and the peptide binding is quantitated.
# Assembly assays for binding of the synthetic peptides to class I MHC molecules metabolically labeled with [35S]-methionine were carried out as described (12,13). The assembly assay is based on stabilization of the class I molecules after loading of peptide to the peptide transporter deficient cell line T2. Subsequently, correctly folded stable MHC heavy chains are immunoprecipitated using conformation-dependent antibodies. After IEF electrophoresis, gels were exposed to phosphoImager screens, and peptide binding was quantified using the Imagequant PhosphorImager program (Molecular Dynamics, Sunnyvale, Calif.).
# The binding affinity of synthetic peptides (Invitrogen, Carlsbad, Calif., USA) to HLA-A1, -A2, A3, or -A11 molecules metabolically labeled with [^35S]-methionine was measured in the assembly assay, as described previously (12). The assay is based on peptide-mediated stabilization of empty HLA molecules released upon cell lysis, from the TAP-deficient cell lines. […] MHC heavy chain bands were quantified using the ImageGauge Phosphorimager program (FUJI photo film Co., Carrollton, Tex., USA). The intensity of the band is proportional to the amount of peptide-bound class I MHC complex recovered during the assay. Subsequently, the extent of stabilization of the HLA-molecule is directly related to the binding affinity of the added peptide. The peptide concentration used to analyze the recovery of the HLA-molecules was 40, 4, 0.4, 0.04 μM for HLA-A1 and HLA-A11, and 100, 10, 1, 0.1, 0.01 μM for HLA-A2 and HLA-A3. The C50 value was subsequently calculated for each peptide as the peptide concentration sufficient for half maximal stabilization.
row,Molecule,C50 (peptide concentration for half maximal binding to HLA-A2)
1,SVKKQFEEL [Sur5],did not bind; also recorded: Not binding
2,ETAKKVRRAI [Sur10],did not bind; also recorded: Not binding
3,RAIEQLAAM [Sur2],did not bind; also recorded: Not binding
4,TAKKVRRAI [Sur7],did not bind; also recorded: Not binding
5,STFKNWPFL [Sur4],did not bind; also recorded: Not binding

# Same assay, conditions: Example 1, Table 1; read-out: C50 (peptide concentration for half maximal binding to HLA-A2)
row,Molecule,pEC50
1,CC(C)C[C@H](NC(=O)[C@H](Cc1ccccc1)NC(=O)[C@@H]1CCCN1C(=O)[C@H](CCC(N)=O)NC(=O)[C@H](Cc1c[nH]c2ccccc12)NC(=O)[C@H](C)NC(=O)[C@@H]1CCCN1C(=O)[C@@H]1CCCN1C(=O)[C@H](CC(C)C)NC(=O)[C@@H](N)[C@@H](C)O)C(=O)O [Sur8],4.52
2,CC[C@H](C)[C@H](NC(=O)[C@H](C)NC(=O)[C@H](CCCNC(=N)N)NC(=O)[C@H](CCCNC(=N)N)NC(=O)[C@@H](NC(=O)[C@@H](N)CCCCN)C(C)C)C(=O)N[C@@H](CCC(=O)O)C(=O)N[C@@H](CCC(N)=O)C(=O)N[C@@H](CC(C)C)C(=O)O [Sur3],< 4.00
3,CC(C)C[C@H](NC(=O)[C@H](CCCCN)NC(=O)[C@H](CC(C)C)NC(=O)[C@H](Cc1ccccc1)NC(=O)[C@H](CCC(=O)O)NC(=O)CNC(=O)[C@H](CC(C)C)NC(=O)[C@@H](NC(=O)[C@H](CC(C)C)NC(=O)[C@@H](N)CCC(=O)O)[C@@H](C)O)C(=O)O [Sur9],5.00
4,CC(C)C[C@H](NC(=O)[C@H](CCCCN)NC(=O)[C@H](CC(C)C)NC(=O)[C@H](Cc1ccccc1)NC(=O)[C@H](CCC(=O)O)NC(=O)CNC(=O)[C@H](CC(C)C)NC(=O)[C@@H](NC(=O)[C@@H](N)CC(C)C)[C@@H](C)O)C(=O)O [Sur1],< 4.00
5,CC(C)C[C@H](NC(=O)[C@H](CCCCN)NC(=O)[C@H](CC(C)C)NC(=O)[C@@H](N)Cc1ccccc1)C(=O)N[C@@H](CC(=O)O)C(=O)N[C@@H](CCCNC(=N)N)C(=O)N[C@@H](CCC(=O)O)C(=O)N[C@@H](CCCNC(=N)N)C(=O)N[C@@H](C)C(=O)O [Sur6],4.52

# Same assay, conditions: Example 4
row,Molecule,C50 (half maximal recovery of HLA-A2)
1,SVKKQFEELTL [Sur88-98],did not bind
2,CC(C)C[C@H](NC(=O)[C@H](CCC(=O)O)NC(=O)[C@H](CCCCN)NC(=O)[C@H](Cc1ccccc1)NC(=O)[C@H](CS)NC(=O)[C@H](Cc1ccccc1)NC(=O)[C@H](Cc1ccccc1)NC(=O)[C@H](CS)NC(=O)[C@H](CCC(N)=O)NC(=O)[C@H](C)NC(=O)[C@@H](N)CC(C)C)C(=O)O [Sur54-64] (H-LAQCFFCFKEL-OH; N-terminus and C-terminus assumed),did not bind
3,KLDRERAKNKI [Sur103-113],did not bind
4,PTLPPAWQPFL [Sur4-14],did not bind

# Same assay, conditions: Example 4; read-out: C50 (half maximal recovery of HLA-A2)
row,Molecule,pEC50
1,CC(C)C[C@H](NC(=O)[C@H](CCCCN)NC(=O)[C@H](CC(C)C)NC(=O)[C@H](Cc1ccccc1)NC(=O)[C@H](CCC(=O)O)NC(=O)CNC(=O)[C@H](CC(C)C)NC(=O)[C@@H](NC(=O)[C@@H](N)CC(C)C)[C@@H](C)O)C(=O)O [Sur1],< 4.00

# Same assay, conditions: Table 4, HLA-A2, 11-mers and controls; read-out: C50
row,Molecule,pEC50
1,SVKKQFEELTL [Sur88-98],< 4.00
2,KLDRERAKNKI [Sur103-113],< 4.00
3,PTLPPAWQPFL [Sur4-14],< 4.00

# Biological target: HLA-A3 (Homo sapiens, UniProt P04439)
# Assay: Assembly assay, HLA-A3
# Format: binding
# Conditions: not given
# Experimental: The binding affinity of synthetic peptides (Invitrogen, Carlsbad, Calif., USA) to HLA-A1, -A2, A3, or -A11 molecules metabolically labeled with [^35S]-methionine was measured in the assembly assay, as described previously (12). The assay is based on peptide-mediated stabilization of empty HLA molecules released upon cell lysis, from the TAP-deficient cell lines. Stably folded HLA-molecules were immune-precipitated using the HLA class I-specific, conformation-dependent mAb W6/32, and separated by isoelectric focusing (IEF) gel electrophoresis. MHC heavy chain bands were quantified using the ImageGauge Phosphorimager program (FUJI photo film Co., Carrollton, Tex., USA). The intensity of the band is proportional to the amount of peptide-bound class I MHC complex recovered during the assay. Subsequently, the extent of stabilization of the HLA-molecule is directly related to the binding affinity of the added peptide. The peptide concentration used to analyze the recovery of the HLA-molecules was 40, 4, 0.4, 0.04 μM for HLA-A1 and HLA-A11, and 100, 10, 1, 0.1, 0.01 μM for HLA-A2 and HLA-A3. The C50 value was subsequently calculated for each peptide as the peptide concentration sufficient for half maximal stabilization.
row,Molecule,"binding to HLA-A3, in words"
1,FLKDHRISTK [Sur13K9],no detectable effect
2,CC[C@H](C)[C@H](N)C(=O)N[C@@H](CC(C)C)C(=O)N[C@@H](CCCCN)C(=O)N[C@@H](CCC(=O)O)C(=O)N[C@H](C(=O)N[C@@H](CC(N)=O)C(=O)N[C@@H](CC(N)=O)C(=O)N[C@@H](CCCCN)C(=O)N[C@@H](CCCCN)C(=O)N[C@@H](CCCCN)C(=O)O)[C@@H](C)O [Sur113L2],only bound weakly
3,CC(C)C[C@H](NC(=O)[C@@H](N)CC(=O)O)C(=O)N[C@@H](C)C(=O)N[C@@H](CCC(N)=O)C(=O)N[C@@H](CS)C(=O)N[C@@H](Cc1ccccc1)C(=O)N[C@@H](Cc1ccccc1)C(=O)N[C@@H](CS)C(=O)N[C@@H](CCCCN)C(=O)O [Sur53K9] (H-DLAQCFFCK-OH; N-terminus and C-terminus assumed),no detectable effect

# Same assay, conditions: Table 4, HLA-A3; read-out: C50
row,Molecule,pEC50
1,"CC[C@H](C)[C@H](N)C(=O)N[C@@H](CC(C)C)C(=O)N[C@@H](CCCNC(=N)N)C(=O)NCC(=O)N[C@@H](CO)C(=O)N[C@H](C(=O)N[C@@H](C)C(=O)N[C@@H](Cc1c[nH]cn1)C(=O)N[C@@H](CCCCN)C(=O)O)C(C)C [C3, reference compound]",6.52 to 7.00 and 7.00
2,RISTFKNWPF [Sur 18-27],< 4.00
3,CC[C@H](C)[C@H](NC(=O)[C@@H](N)[C@@H](C)O)C(=O)N[C@@H](CCCNC(=N)N)C(=O)N[C@@H](CCCNC(=N)N)C(=O)N[C@@H](CCCCN)C(=O)N[C@@H](CC(N)=O)C(=O)N[C@@H](CC(C)C)C(=O)N[C@@H](CCCNC(=N)N)C(=O)N[C@@H](CCCCN)C(=O)O [SurEx3-A3-1],6.30
4,FLKDHRISTK [Sur13K9],< 4.00
5,TLPPAWQPF [Sur 5-13],< 4.00
6,PTIRRKNLRK [SurEx3-A3-2],< 4.00
7,RITREEHKK [Sur2b-A3-1],< 4.00
8,CAFLSVKKQF [Sur 84-93],< 4.00
9,CC[C@H](C)[C@H](N)C(=O)N[C@@H](CC(C)C)C(=O)N[C@@H](CCCCN)C(=O)N[C@@H](CCC(=O)O)C(=O)N[C@H](C(=O)N[C@@H](CC(N)=O)C(=O)N[C@@H](CC(N)=O)C(=O)N[C@@H](CCCCN)C(=O)N[C@@H](CCCCN)C(=O)N[C@@H](CCCCN)C(=O)O)[C@@H](C)O [Sur113L2],< 4.00
10,FLKDHRISTF [Sur 13-22],< 4.00
11,KLDRERAKNK [Sur 103-112],< 4.00
12,IAKETNNKKK [Sur 113-122],< 4.00
13,FLKLDRERAK [Sur 101-110],< 4.00

# Tested on: peptide epitope-specific interferon-γ releasing effector cells
# Assay: IFN-γ ELISPOT, Example 4 (PBL or TIL from cancer patients)
# Format: cell-based, human
# Conditions: HLA-A1; ten melanoma patients; data not shown
# Experimental: To extend the sensitivity of the ELISPOT assay, PBL were stimulated once in vitro prior to analysis. At day 0, PBL or crushed lymph nodes were thawed and plated as 2×10^6 cells in 2 ml/well in 24-well plates (Nunc, Roskilde, Denmark) in x-vivo medium (Bio Whittaker, Walkersville, Md.), […] heat-inactivated human serum, and 2 mM of L-glutamine in the presence of 10 μM of peptide. Two days later 20 IU/ml recombinant interleukin-2 (IL-2) (Chiron, Ratingen, Germany) was added to the cultures. The cultured cells were tested for reactivity in the ELISPOT on day 10.
# The ELISPOT assay was used to quantify peptide epitope-specific interferon-γ releasing effector cells as previously described (16). Briefly, nitrocellulose bottomed 96-well plates (MultiScreen MAIP N45, Millipore, Hedehusene, Denmark) were coated with anti-IFN-γ antibody (1-D1K, Mabtech, Nacka, Sweden). The wells were washed, blocked by X-vivo medium, and the cells were added in duplicates at different cell concentrations. The peptides were then added to each well and the plates were incubated overnight. The following day, media was discarded and the wells were washed prior to addition of biotinylated secondary antibody (7-B6-1-Biotin, Mabtech). The plates were incubated for 2 hours, washed, and avidin-alkaline phosphatase conjugate (Calbiochem, Life Technologies, Inc. San Diego, Calif., USA) was added to each well. The plates were incubated at room temperature for one hour, washed, and the enzyme substrate NBT/BCIP (DakoCytomation Norden A/S, Glostrup, Denmark) was added to each well and incubated at RT for 5-10 min. Upon the emergence of dark purple spots, the reaction was terminated by washing with tap-water. The spots were counted using the ImmunoSpot® Series 2.0 Analyzer (CTL Analyzers, LLC, Cleveland, US) and the peptide specific CTL frequency could be calculated from the numbers of spot-forming cells. All assays were performed in duplicates for each peptide antigen.
row,Molecule,ELISPOT response
1,PTENEPDLAQ [Sur47-56],no peptide-specific responses were detected

# Same assay, conditions: HLA-A2; ten cancer patients analyzed
row,Molecule,patients with CTL response in PBL
1,CC(C)C[C@H](NC(=O)[C@H](CCC(=O)O)NC(=O)[C@H](CCC(=O)O)NC(=O)[C@H](Cc1ccccc1)NC(=O)[C@H](CCC(N)=O)NC(=O)[C@H](CCCCN)NC(=O)[C@H](CCCCN)NC(=O)[C@@H](NC(=O)[C@H](CO)NC(=O)[C@H](CC(C)C)NC(=O)[C@@H](N)Cc1ccccc1)C(C)C)C(=O)O [Sur86-96],no responses could be detected

# Reference: patent publication US20070148184A1, “Survivin-derived peptides and use thereof” (priority 2003, published 2007)
